According to patent publication US10787425B2, “Thiazolidinedione derivative and use thereof” (INDUSTRY-ACADEMIC COOPERATION FOUNDATION CHOSUN UNIVERSITY, priority 2016, dated 2020):

Tests used:
15-PGDH = 15-PGDH (Homo sapiens (Human), UniProt P15428); assay: 15-PGDH inhibitory activity (NADH at 340 nm); type: biochemical; settings: concentration inhibiting 50% of 15-PGDH activity; purified 15-PGDH, 21 μM PGE2, 0.25 mM NAD+
Summary of the method: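 GST-purified human 15-PGDH (E. coli BL-21 LysS, 10 μg) with 21 μM PGE2 and 0.25 mM NAD+ in 50 mM Tris-HCl pH 7.5, 0.1 mM DTT. Compound tested at 0.0001–64 μM; NADH formation read by absorbance at 340 nm against a standard curve.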

A549 cells = assay: Measurement of PGE2 concentration in A549 cell medium (ELISA); type: cell-based, human; settings: for Increment %: PGE2 concentration versus PBS control, 5 μM, 12 hours; for PGE2 concentration: inhibitor 5 μM, medium collected after 12 hours, ELISA
Summary of the method: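 A549 cells in RPMI 1640 with 8% FBS, seeded at 5×10^5 cells/well and grown 24 h at 37° C, 5% CO2; at ~80% confluence treated with 15-PGDH inhibitor at 5 μM in PBS (PBS-only negative control). After 12 h, PGE2 in the medium was measured by ELISA against a standard curve.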

HaCaT cells = assay: Wound treatment (scratch) assay in HaCaT cells; type: cell-based, human; settings: 48 hours
Experimental: HaCaT cells subcultured for about one week in DMEM [containing+8% FBS, AA] medium were inoculated in a 6-well plate at 2×10^5 cells/mL ([…]). Then, the cells were cultured for about 24 hours until the cells reached 80% confluency. HaCaT cells are an adult human skin-derived and spontaneously […] aneuploid immortal keratinocyte cell line. After the culture, the cells were washed with 1×PBS buffer and the used medium was replaced with an FBS and antibiotic-free medium. Then, mitomycin was added thereto at a concentration of 30 μg/mL and the cells were cultured for 2 hours. Then, the cells were washed with 1×PBS buffer, and a cell monolayer on the bottom surface of each well was scratched by using a 200 μL pipette tip to harm the cells. Since some cells were washed away by the scratching, the plate was washed repeatedly with 1×PBS buffer and then, filled with DMEM medium containing FBS and AA, and photographed at the time of 0 hour.
The 15-PGDH inhibitor was then injected at a concentration of 5 μM or the indicated concentration. For comparison with the results, in the case of the negative control, nothing was added, and in the case of the positive control, TGF-β1 was injected at a concentration of 1 ng/mL and then, the cells were cultured for 48 hours. After 48 hours, the picture of the cells was taken again to confirm how much the cells were grown due to the drug effect.

[1] = 0.5 μM to 5 μM, versus control (FIGS. 4 to 6)
[2] = 5 μM, versus control (FIGS. 1 to 3)

15-PGDH, sequence (P15428 whole entry): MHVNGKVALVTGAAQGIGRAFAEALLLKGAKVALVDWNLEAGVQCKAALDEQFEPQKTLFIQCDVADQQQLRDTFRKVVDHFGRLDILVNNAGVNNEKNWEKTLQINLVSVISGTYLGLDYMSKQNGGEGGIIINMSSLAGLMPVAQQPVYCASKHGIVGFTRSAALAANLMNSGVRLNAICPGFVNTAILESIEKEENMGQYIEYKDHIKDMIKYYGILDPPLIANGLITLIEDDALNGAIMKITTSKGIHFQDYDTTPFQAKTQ

| Structure (SMILES) | IC50 (15-PGDH) | Increment % (A549 cells) | PGE2 concentration (A549 cells) | wound closure rate (HaCaT cells; [1]) | wound closure rate (HaCaT cells; [2]) |
| --- | --- | --- | --- | --- | --- |
| CCOc1cc(/C=C2\SC(=O)NC2=O)ccc1OC(=O)CCCc1ccccc1 [Compound 59, (Z)-4-((2,4-dioxothiazolidin-5-ylidene)methyl)-2-ethoxyphenyl 4-phenylbutanoate] | 43.9 nM | 579.34% | 1081.055 pg/mL | significantly high wound closure rate | significantly higher wound closure rates than the control |
| O=C1NC(=O)/C(=C/c2ccc(OC(=O)C3CC3)c(Cl)c2)S1 [Compound 1, (Z)-2-chloro-4-((2,4-dioxothiazolidin-5-ylidene)methyl)phenyl cyclopropanecarboxylate] | 2090 nM | 3.47% | 283.2688 pg/mL | – | significantly higher wound closure rates than the control |
| O=C(CCCc1ccccc1)Oc1ccc(/C=C2\SC(=O)NC2=O)cc1Cl [Compound 14, (Z)-2-chloro-4-((2,4-dioxothiazolidin-5-ylidene)methyl)phenyl 4-phenylbutanoate] | 22 nM | 389.99% | 586.3975 pg/mL | – | significantly higher wound closure rates than the control |
| O=C(CCCc1ccccc1)Oc1cccc(/C=C2\SC(=O)NC2=O)c1Cl [Compound 89, (Z)-2-chloro-3-((2,4-dioxothiazolidin-5-ylidene)methyl)phenyl 4-phenylbutanoate] | 25.1 nM | 398.2% | 1048.274 pg/mL | significantly high wound closure rate | significantly higher wound closure rates than the control |
